Laboratory results: patent US12319690B2, “Selective CDK 4/6 inhibitor cancer therapeutics” (LUNELLA BIOTECH, INC., priority 2019, dated 2025)

Assays:
Type in all cases: cell-based, human
[1] = tested on: MCF7 cell line (ER+ breast cancer); assay: 3D-mammosphere formation assay; conditions: for IC50: Homo sapiens, MCF7, 3D-mammosphere assay; for SI (mammosphere/monolayer MCF7): mammosphere selectivity index, ratio between IC50 values in the 3D and 2D assays against MCF7; for inhibition of MCF7 cells in the mammosphere assay compared to parent compound: concentrations from 1 μM to 100 μM
Excerpt: As used in the tables, “IC50 (MCF7 mammosphere)” refers to the half maximal inhibitory concentration in the 3D-mammosphere assay, using the ER+ breast cancer cell line, MCF7. The term “IC50 (MCF7 monolayer)” refers to the half maximal inhibitory concentration in the 2D-cell viability assay, using the ER+ breast cancer cell line, MCF7. The term “IC50 (BJ1 monolayer)” refers to the half maximal inhibitory concentration in the 2D-cell viability assay, using the immortalized non-tumoral fibroblast cell line, hTERT-BJ1. The term “SI (mammosphere/monolayer MCF7)” refers to the mammosphere selectivity index, a ratio between IC50 values comparing the biological activity in the 3D and 2D assays against MCF7. The term “SI (BJ1/MCF7 monolayer)” refers to the cancer selectivity index, a ratio between IC50 values comparing the biological activity in the cell viability assays against MCF7 and hTERT-BJ1.
FIGS. 1-3 are dose-response curves for various compounds described herein, using the mammosphere assay. The assay was performed using the MCF7 cell line. The curves are plotted as a mean of two independent experiments, and the standard deviation for each point is represented by vertical bars. The inhibition percentage is shown as a function of the log of the concentration (μM). […] Similar effects are expected for compounds having the general formula [1D].
Mammosphere formation assay: A single cell suspension was prepared using enzymatic (1× Trypsin-EDTA, Sigma Aldrich, cat. #T3924), and manual disaggregation (25 gauge needle). Five thousand cells were plated with in mammosphere medium (DMEM-F12/B27/20 ng/ml EGF/PenStrep), under non-adherent conditions, in six wells plates coated with 2-hydroxyethylmethacrylate (poly-HEMA, Sigma, cat. #P3932). Cells were grown for 5 days and maintained in a humidified incubator at 37° C. at an atmospheric pressure in 5% (v/v) carbon dioxide/air. After 5 days, 3D spheroids with a diameter greater than 50 μm were counted using a microscope, fitted with a graticule eye-piece, and the percentage of cells which formed spheroids was calculated and normalized to one (1=100% MFE; mammosphere forming efficiency). Mammosphere assays were performed in triplicate and repeated three times independently.

[2] = tested on: MCF7 cell line (ER+ breast cancer); assay: 2D-cell viability assay (Hoechst staining), MCF7 monolayer; conditions: for IC50: Homo sapiens, MCF7, 2D-cell viability assay, MCF7
Excerpt: (§1) As used in the tables, “IC50 (MCF7 mammosphere)” refers to the half maximal inhibitory concentration in the 3D-mammosphere assay, using the ER+ breast cancer cell line, MCF7. The term “IC50 (MCF7 monolayer)” refers to the half maximal inhibitory concentration in the 2D-cell viability assay, using the ER+ breast cancer cell line, MCF7. The term “IC50 (BJ1 monolayer)” refers to the half maximal inhibitory concentration in the 2D-cell viability assay, using the immortalized non-tumoral fibroblast cell line, hTERT-BJ1. The term “SI (mammosphere/monolayer MCF7)” refers to the mammosphere selectivity index, a ratio between IC50 values comparing the biological activity in the 3D and 2D assays against MCF7. The term “SI (BJ1/MCF7 monolayer)” refers to the cancer selectivity index, a ratio between IC50 values comparing the biological activity in the cell viability assays against MCF7 and hTERT-BJ1. A Hoechst-based viability assay was used to characterize the selectivity of compounds according to the present approach, for the preferential targeting of cancer cells. Briefly, MCF7 cell monolayers were treated with a compound at concentrations ranging from 1 μM to 100 μM, for a period of one day. Cell viability was assessed using Hoechst 33342, a nuclear dye that stains DNA in live cells. The viability of normal human fibroblasts (hTERT-BJ1) treated with the compounds described herein was also assessed in parallel. Quantitation was performed with a plate-reader.

[3] = tested on: hTERT-BJ1 (immortalized non-tumoral fibroblast cell line); assay: 2D-cell viability assay (Hoechst staining), hTERT-BJ1 monolayer; conditions: for IC50: Homo sapiens, Fibroblast, 2D-cell viability assay, hTERT-BJ1; for SI (BJ1/MCF7 monolayer): cancer selectivity index, ratio between IC50 values in cell viability assays against MCF7 and hTERT-BJ1
Excerpt: as §1

SMILES | IC50 ([1]; MCF7) | SI (mammosphere/monolayer MCF7) [1] | IC50 [2] | IC50 ([3]; Table 3, unit inferred) | SI (BJ1/MCF7 monolayer) [3] | inhibition of cell propagation ([1]; at concentrations as low as 1 μM, preliminary laboratory evaluations) | inhibition of MCF7 cells in the mammosphere assay compared to parent compound [1] | fold improvement in potency in the 3D-mammosphere assay compared to the parent compound ([1]; vs. Ribociclib, MCF7) | potency against MCF7 cells compared to parent compound (dose-response curves) ([2]; Hoechst staining assay, MCF7, FIG. 4 (FIG. 1 cited in same passage)) | IC50 [3] | non-toxic in the 2D-cell viability assay up to a concentration ([2]; MCF7 monolayer) | potency on hTERT-BJ1 compared to Compound [1C] (dose-response curves) ([3]; Hoechst staining assay, hTERT-BJ1, FIG. 7)
CCN1CCN(Cc2ccc(Nc3ncc(F)c(-c4cc(F)c5nc(C)n(C(C)C)c5c4)n3)nc2)CC1 [Abemaciclib] | < 0.04 µM | >50 | 11 µM | 30 ± 6 µM | 2.7 |  |  |  |  |  |  | 
CCCCCCCCCCCCCC(=O)N1CCN(c2ccc(Nc3ncc4cc(C(=O)N(C)C)n(C5CCCC5)c4n3)nc2)CC1 [Compound [1C], 7-cyclopentyl-N,N-dimethyl-2-[[5-(4-tetradecanoylpiperazin-1-yl)-2-pyridyl]amino]pyrrolo[2,3-d]pyrimidine-6-carboxamide] | ~0.2 µM | 10 | ~2 µM |  | >45 | ~100% | remarkably improved inhibition | 7 fold | more potent | > 90 µM |  | 
CCCCCCCCCCCCCC(=O)N1CCN(c2ccc(Nc3ncc4c(C)c(C(C)=O)c(=O)n(C5CCCC5)c4n3)nc2)CC1 [Compound [2C], 6-acetyl-8-cyclopentyl-5-methyl-2-[[5-(4-tetradecanoylpiperazin-1-yl)-2-pyridyl]amino]pyrido[2,3-d]pyrimidin-7-one] | ~5.1 µM | >5 | > 30 µM |  |  |  | remarkably improved inhibition |  |  | > 90 µM | ≤ 30 µM | 
CC(=O)c1c(C)c2cnc(Nc3ccc(N4CCNCC4)cn3)nc2n(C2CCCC2)c1=O [Palbociclib, 6-acetyl-8-cyclopentyl-5-methyl-2-(5-piperazin-1-yl-pyridin-2-ylamino)-8H-pyrido[2,3-d]pyrimidin-7-one] | ~0.2 µM | non-selective | ~0.1 µM |  | >900 |  |  |  |  | > 90 µM |  | 
CN(C)C(=O)c1cc2cnc(Nc3ccc(N4CCNCC4)cn3)nc2n1C1CCCC1 [Ribociclib, 7-cyclopentyl-N,N-dimethyl-2-[(5-piperazin-1-ylpyridin-2-yl)amino]pyrrolo[2,3-d]pyrimidine-6-carboxamide] | ~1.5 µM | 1.3 | ~2 µM |  | >45 |  |  |  |  | > 90 µM |  | more potent at most concentrations tested
